Assay results reported in PMC6302903, “Protein and Chemical Determinants of BL-1249 Action and Selectivity for K2P Channels” (ACS Chemical Neuroscience, 2018).

Tests used:
K2P4.1(TRAAK) = target: T1, K2P4.1(TRAAK) (Mus musculus, UniProt O88454); assay: TEVC of K2P4.1(TRAAK) in Xenopus oocytes; format: cell-based; conditions: I/I0 at 0 mV
T1 construct: expressed in transfected cells; host or cells: Xenopus laevis oocytes injected with mRNA made from pGEMHE/pMO
T1 sequence (O88454 1-398): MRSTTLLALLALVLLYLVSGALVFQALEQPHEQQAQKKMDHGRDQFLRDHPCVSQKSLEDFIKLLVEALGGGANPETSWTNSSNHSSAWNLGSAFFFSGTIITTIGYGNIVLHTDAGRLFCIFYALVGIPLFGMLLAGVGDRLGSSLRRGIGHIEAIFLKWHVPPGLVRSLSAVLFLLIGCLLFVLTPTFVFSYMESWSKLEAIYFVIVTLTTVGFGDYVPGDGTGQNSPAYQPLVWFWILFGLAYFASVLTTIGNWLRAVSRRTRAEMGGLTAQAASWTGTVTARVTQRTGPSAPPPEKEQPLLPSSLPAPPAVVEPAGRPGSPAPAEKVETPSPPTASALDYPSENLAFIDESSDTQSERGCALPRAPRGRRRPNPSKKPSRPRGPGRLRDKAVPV
Excerpt: (§1) Constructs for murine K2P channels, including K2P2.1(TREK-1) (Gene ID 16526), K2P10.1(TREK-2) (Gene ID 72258), K2P4.1(TRAAK) (Gene ID 16528), K2P5.1(TASK-2) (Gene ID 16529), K2P3.1(TASK-1) (Gene ID 16527), K2P9.1(TASK-3) (Gene ID 223604), and K2P18.1(TRESK) (Gene ID 332396) in pGEMHE/pMO, were used for Xenopus oocyte experiments as previously described.[10],[26] Murine K2P2.1(TREK-1) (Gene ID 16526) was expressed in HEK-293 cells using a pIRES-EGFP construct as previously described.[26] Murine K2P13.1(THIK-1) (Gene ID 217826) and K2P1.1(TWIK-1) (Gene ID 16525) were cloned into pGEMHE/pMO for use in Xenopus oocytes. Chimeras were designed using EMBOSS Needle pairwise sequence alignment tool[58] to match homologous helices in K2P2.1(TREK-1) and K2P4.1(TRAAK) and were assembled using the Gibson assembly method.[59] Chimera boundaries are Thr152 (TREK-1/AAK M2-C), Trp199 (TREK-1/AAK M3-C), Y272 (TREK-1/AAK M4-C), Thr114 (TRAAK/EK-1 M2-C), Trp161 (TRAAK/EK-1 M3-C), and Tyr234 K2P4.1(TRAAK). All sequences were verified using DNA sequencing.
(§2) Xenopus laevis oocytes were harvested in accordance with UCSF IACUC protocol AN129690 and digested in calcium-free ND-96 (96 mM NaCl, 2 mM KCl, 3.8 mM MgCl2) immediately following harvest, as previously described.[6],[10] Digested oocytes were maintained in standard ND96 (96 mM NaCl, 2 mM KCl, 1.8 mM CaCl2, 2 mM MgCl2) with antibiotics (100 units mL^–1 penicillin, 100 μg mL^–1 streptomycin, 50 μg mL^–1 gentimycin). Defolliculated stage V–VI oocytes were injected with 0.2–6.0 ng of mRNA in 50 nL, and currents were recorded 24–48 h after injection. mRNA was synthesized from plasmid DNA using mMessage mMachine Kit (T7 promoter, Ambion, Life Technologies) and purified using RNEasy Kit (Qiagen). Injected oocytes were impaled with two standard microelectrodes (0.2–1.0 MΩ) filled with 3 M KCl and subjected to constant perfusion of standard ND96 during recording. Currents were amplified using the GeneClamp 500B (MDS Analytical Technologies) amplifier controlled by the pClamp software (Molecular Devices). Data were digitized at 1 kHz using Digidata 1332A (MDS Analytical Technologies). For all experiments with small molecules, basal currents were evoked using 1 s long ramps from −150 to +50 mV under constant perfusion of ND96. Once stabilized basal currents were recorded, compounds were perfused at various concentrations in standard ND96 and currents were allowed to increase to stabilization before recording final current. Fold activation upon compound application is expressed as I/I0 (0 mV), derived from the current at 0 mV in the presence of compound divided by the basal current at 0 mV in standard ND96 without compound. Data were analyzed and plotted using Graphpad Prism Version 5 (GraphPad Software, San Diego California USA, www.graphpad.com). […] In the case of BL-1249-acid EC50 estimation, upper bound of I/I0 was set to 20 to account for the strong stimulation of BL-1249-acid.

K2P18.1(TRESK) = system: K2P18.1(TRESK); set-up: method as in PMID 27641472; conditions: cited from earlier work
K2P2.1(TREK-1) = target: T2, K2P2.1(TREK-1) (Mus musculus, UniProt P97438); assay: TEVC of K2P2.1(TREK-1) in Xenopus oocytes; format: cell-based; set-up: expressed in transfected cells; host or cells: Xenopus laevis oocytes injected with mRNA made from pGEMHE/pMO; conditions: for effect on K2P2.1(TREK-1) current (in words): dose-response
T2 sequence (P97438 1-411 isoform P97438-2): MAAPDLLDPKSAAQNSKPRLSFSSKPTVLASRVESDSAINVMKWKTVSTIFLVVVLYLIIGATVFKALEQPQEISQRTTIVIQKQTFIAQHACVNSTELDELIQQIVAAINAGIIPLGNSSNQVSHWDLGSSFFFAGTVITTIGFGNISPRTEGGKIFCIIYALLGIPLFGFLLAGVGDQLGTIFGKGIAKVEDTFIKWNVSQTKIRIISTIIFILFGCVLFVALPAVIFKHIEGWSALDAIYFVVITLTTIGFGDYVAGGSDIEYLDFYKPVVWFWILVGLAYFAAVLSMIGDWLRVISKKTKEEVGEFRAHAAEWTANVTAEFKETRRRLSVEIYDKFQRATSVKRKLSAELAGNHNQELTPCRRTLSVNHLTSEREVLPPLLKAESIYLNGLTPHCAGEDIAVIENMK
Excerpt: as §1, §2

TREK-1/AAK M4-C = target: T3, TREK-1/AAK M4-C (Mus musculus, UniProt O88454+P97438); assay: TEVC of chimera TREK-1/AAK M4-C; format: cell-based; conditions: Xenopus oocytes
T3 construct: Y272 (TREK-1/AAK M4-C); expressed in transfected cells; host or cells: Xenopus laevis oocytes, mRNA injected; chimera built by Gibson assembly
T3 sequence (P97438+O88454 with tags, fused parts or gaps P97438:V273L/P97438:V280F/P97438:A287S/P97438:S290T/P97438:M291T/P97438:D294N): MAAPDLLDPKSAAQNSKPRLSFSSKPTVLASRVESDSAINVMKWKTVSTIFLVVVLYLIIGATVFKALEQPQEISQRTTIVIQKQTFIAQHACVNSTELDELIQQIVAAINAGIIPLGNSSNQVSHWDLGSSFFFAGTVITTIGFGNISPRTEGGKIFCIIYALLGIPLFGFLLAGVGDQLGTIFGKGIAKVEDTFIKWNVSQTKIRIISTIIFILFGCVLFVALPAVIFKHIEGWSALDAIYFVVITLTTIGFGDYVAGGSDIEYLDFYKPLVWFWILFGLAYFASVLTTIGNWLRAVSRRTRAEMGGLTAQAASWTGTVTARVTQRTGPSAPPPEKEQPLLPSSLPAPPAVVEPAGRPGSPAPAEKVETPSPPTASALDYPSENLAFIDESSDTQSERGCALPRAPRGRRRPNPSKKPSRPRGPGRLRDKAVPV

TREK-1/AAK M3-C = target: T4, TREK-1/AAK M3-C (Mus musculus, UniProt O88454+P97438); assay: TEVC of chimera TREK-1/AAK M3-C; format: cell-based; conditions: Xenopus oocytes
T4 construct: Trp199 (TREK-1/AAK M3-C); expressed in transfected cells; host or cells: Xenopus laevis oocytes, mRNA injected; chimera built by Gibson assembly
T4 sequence (P97438+O88454 with tags, fused parts or gaps P97438:N200H/P97438:S202P/P97438:Q203P/P97438:T204G/P97438:K205L/P97438:I206V/P97438:I208S/P97438:I209L/P97438:T211A/P97438:I212V/P97438:I213L/P97438:I215L/P97438:F217I/P97438:V220L/P97438:A224L/P97438:L225T/P97438:A227T/P97438:V228F/P97438:I229V/P97438:K231S/P97438:H232Y/P97438:I233M/P97438:G235S/P97438:A238K/P97438:D240E/P97438:V246I/P97438:I247V/P97438:I252V/P97438:A259P/P97438:G261D/P97438:S262G/P97438:D263T/P97438:I264G/P97438:E265Q/P97438:Y266N/P97438:L267S/P97438:D268P/P97438:F269A/P97438:K271Q/P97438:V273L/P97438:V280F/P97438:A287S/P97438:S290T/P97438:M291T/P97438:D294N): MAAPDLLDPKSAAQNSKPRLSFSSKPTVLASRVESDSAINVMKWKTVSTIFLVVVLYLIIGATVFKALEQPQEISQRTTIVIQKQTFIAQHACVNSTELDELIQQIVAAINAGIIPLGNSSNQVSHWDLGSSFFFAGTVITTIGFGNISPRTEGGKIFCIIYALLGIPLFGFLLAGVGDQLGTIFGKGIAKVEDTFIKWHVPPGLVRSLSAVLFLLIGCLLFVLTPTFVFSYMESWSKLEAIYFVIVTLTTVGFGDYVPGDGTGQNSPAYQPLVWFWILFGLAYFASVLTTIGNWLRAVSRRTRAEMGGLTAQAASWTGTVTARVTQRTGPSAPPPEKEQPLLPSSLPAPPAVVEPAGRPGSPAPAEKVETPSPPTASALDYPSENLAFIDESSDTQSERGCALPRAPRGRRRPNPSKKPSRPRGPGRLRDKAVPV

TREK-1/AAK M2-C = TREK-1/AAK M2-C (Mus musculus, UniProt O88454+P97438); assay: TEVC of chimera TREK-1/AAK M2-C; format: cell-based; conditions: Xenopus oocytes
TRAAK/EK-1 M4-C = target: T5, TRAAK/EK-1 M4-C (Mus musculus, UniProt O88454+P97438, F242V/L235V/N256D/S249A/T252S/T253M); assay: TEVC of chimera TRAAK/EK-1 M4-C; format: cell-based; conditions: Xenopus oocytes
T5 construct: and Tyr234 K2P4.1(TRAAK); expressed in transfected cells; host or cells: Xenopus laevis oocytes, mRNA injected; chimera built by Gibson assembly

TRAAK/EK-1 M3-C = target: T6, TRAAK/EK-1 M3-C (Mus musculus, UniProt O88454+P97438, A173T/A231F/D223G/E202D/F190V/F242V/G166T/G224S/G226I/H162N/I179F/I208V/K200A/L167K/L171I/L175I/L177I/L182V/L186A/L235V/M195I/N228Y/N256D/P164S/P165Q/P221A/P230D/Q227E/Q233K/S170I/S193K/S197G/S229L/S249A/T187L/T189A/T225D/T252S/T253M/V168I/V174I/V191I/V209I/V214I/Y194H); assay: TEVC of chimera TRAAK/EK-1 M3-C; format: cell-based; conditions: Xenopus oocytes
T6 construct: Trp161 (TRAAK/EK-1 M3-C); expressed in transfected cells; host or cells: Xenopus laevis oocytes, mRNA injected; chimera built by Gibson assembly

TRAAK/EK-1 M2-C = target: T7, TRAAK/EK-1 M2-C (Mus musculus, UniProt O88454+P97438, A151S/D143N/F160Y/H141A/P165L/Q138H/R166H/S147A/S164V/V139S/V154I); assay: TEVC of chimera TRAAK/EK-1 M2-C; format: cell-based; conditions: Xenopus oocytes
T7 construct: Thr114 (TRAAK/EK-1 M2-C); expressed in transfected cells; host or cells: Xenopus laevis oocytes, mRNA injected; chimera built by Gibson assembly

[1] = extracellular application, fold activation I/I0 at 0 mV

TREK-1/AAK M2-C, sequence (P97438 16-167, one chain of several): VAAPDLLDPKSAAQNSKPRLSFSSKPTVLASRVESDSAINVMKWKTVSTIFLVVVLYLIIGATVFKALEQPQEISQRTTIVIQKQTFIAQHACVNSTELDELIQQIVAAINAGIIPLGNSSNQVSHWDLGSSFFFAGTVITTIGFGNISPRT
T7 sequence (O88454+P97438 fused with the stated changes): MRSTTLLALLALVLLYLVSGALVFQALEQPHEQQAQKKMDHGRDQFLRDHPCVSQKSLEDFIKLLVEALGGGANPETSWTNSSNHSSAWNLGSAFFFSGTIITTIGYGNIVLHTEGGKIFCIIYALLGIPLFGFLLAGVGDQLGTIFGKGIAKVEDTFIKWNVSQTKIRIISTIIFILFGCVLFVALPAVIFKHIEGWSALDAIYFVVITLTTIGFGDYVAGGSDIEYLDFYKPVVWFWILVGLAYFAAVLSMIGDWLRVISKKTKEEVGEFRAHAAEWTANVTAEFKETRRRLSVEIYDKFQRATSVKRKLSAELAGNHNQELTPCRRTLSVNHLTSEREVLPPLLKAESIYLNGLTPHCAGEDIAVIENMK
T5 sequence (O88454+P97438 fused with the stated changes): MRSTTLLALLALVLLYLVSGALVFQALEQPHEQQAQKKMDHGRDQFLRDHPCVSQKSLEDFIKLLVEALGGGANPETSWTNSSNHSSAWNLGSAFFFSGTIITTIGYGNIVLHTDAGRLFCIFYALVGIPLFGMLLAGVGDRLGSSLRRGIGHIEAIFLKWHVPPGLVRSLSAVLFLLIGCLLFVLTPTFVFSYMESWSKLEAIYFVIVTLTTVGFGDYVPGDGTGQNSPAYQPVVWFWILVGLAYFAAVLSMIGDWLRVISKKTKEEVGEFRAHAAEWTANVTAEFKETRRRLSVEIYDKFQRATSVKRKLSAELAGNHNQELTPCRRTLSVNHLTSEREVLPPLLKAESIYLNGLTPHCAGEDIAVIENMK
T6 sequence (O88454+P97438 fused with the stated changes): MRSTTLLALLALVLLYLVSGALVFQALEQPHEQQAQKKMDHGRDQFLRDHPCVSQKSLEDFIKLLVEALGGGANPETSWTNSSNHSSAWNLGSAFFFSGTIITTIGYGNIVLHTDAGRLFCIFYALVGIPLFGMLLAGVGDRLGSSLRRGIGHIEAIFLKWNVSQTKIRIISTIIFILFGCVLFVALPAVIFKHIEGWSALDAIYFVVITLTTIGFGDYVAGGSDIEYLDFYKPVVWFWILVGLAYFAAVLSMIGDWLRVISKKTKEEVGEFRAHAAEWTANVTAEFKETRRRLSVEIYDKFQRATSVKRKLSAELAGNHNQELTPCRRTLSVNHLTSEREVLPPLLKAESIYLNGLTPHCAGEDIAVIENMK

| EC50 (K2P4.1(TRAAK)) [µM] | EC50 (K2P2.1(TREK-1); [1]) [µM] | SMILES | effect on K2P2.1(TREK-1) current (in words) (K2P2.1(TREK-1)) | further results |
| --- | --- | --- | --- | --- |
| > 200 |  | O=C(O)c1ccccc1Nc1cccc2c1CCCC2 [BL-1249-acid] | stronger stimulatory effect on the current than either BL-1249 or BL-1249-amide | functional effect on K2P18.1(TRESK) (K2P18.1(TRESK)): inhibitor; loss of potency on K2P2.1(TREK-1) relative to BL-1249-amide (K2P2.1(TREK-1)): ~2 fold; EC50 (K2P2.1(TREK-1); EC50 estimated imposing an upper boundary of 20 (fold activation, I/I0)): 44 ± 10 µM |
| 42 ± 9 | 34 ± 6 | c1ccc2c(c1)Nc1c(-c3nnn[nH]3)cccc1C21CCCCC1 [BL-1249-tricycle] | inhibition between 0.1 and 10 μM followed by activation at higher concentrations |  |
| > 200 | 22 ± 8 | NC(=O)c1ccccc1Nc1cccc2c1CCCC2 [BL-1249-amide] |  |  |
| > 200 | > 200 | c1ccc(Nc2ccccc2-c2nnn[nH]2)cc1 [BL-1249-Ph] | only a small amount of stimulatory effect |  |
|  |  | CC1(C)c2cc(Cl)ccc2N(CCc2nn[nH]n2)c2ccc(Cl)cc21 [ML67-33] |  | EC50 (TREK-1/AAK M4-C): 42 ± 3 µM; EC50 (TREK-1/AAK M3-C): 49 ± 22 µM; EC50 (TREK-1/AAK M2-C): 42 ± 3 µM; EC50 (TRAAK/EK-1 M4-C): 31 ± 3 µM; EC50 (TRAAK/EK-1 M3-C): 44 ± 14 µM; EC50 (TRAAK/EK-1 M2-C): 33 ± 1 µM |
